Laboratory results reported in patent EP4389886A1, “LACTASE ENZYMES AND METHOD OF PRODUCING A MILK-BASED PRODUCT” (Novozymes A/S, priority 2022, dated 2024).
Like-named read-outs stand apart in the source and are kept apart here.

Legend:
[1] = test system: Lactozym® Pure (lactase, Novozymes A/S); assay: Lactose turn-over per enzyme molecule in milk at 5°C; assay type: biochemical
Protocol: (§1) In a preferred embodiment, the enzyme having lactase activity has an initial lactose turn-over of at least 10 per second per enzyme molecule in milk at 5°C. The initial lactose turn-over may be determined, e.g., when 0-10% of the lactose has been hydrolyzed. The skilled person will know how to determine the initial lactose turn-over per enzyme molecule. For example, it can be a direct measurement of lactose using HPLC or indirect using a glucose detection method.

[2] = test system: Saphera® (lactase, Novozymes A/S); assay: as above; assay type: biochemical
Protocol: as §1

[3] = test system: experimental Bifidobacterium lactase; details: substrate lactose, cited from earlier work
[4] = initial rate (4.7% to 4.23% lactose)

OC[C@H]1O[C@@H](O[C@H]2[C@H](O)[C@@H](O)C(O)O[C@@H]2CO)[C@H](O)[C@@H](O)[C@H]1O (some centres unmarked) [lactose]
average lactose turn-over from initial lactose of 4.7% to 0.01% residual lactose [1]: about 5 sec^-1 | average lactose turn-over from initial lactose of 4.7% to 0.1% residual lactose [1]: about 9 sec^-1 | initial lactose turn-over per enzyme molecule [1, 4]: about 36 sec^-1 | average lactose turn-over from initial lactose of 4.7% to 0.01% residual lactose [2]: about 18 sec^-1 | average lactose turn-over from initial lactose of 4.7% to 0.1% residual lactose [2]: about 23 sec^-1 | initial lactose turn-over per enzyme molecule [2, 4]: about 89 sec^-1 | Km ([3]; at 5°C): 8 mM | Km ([3]; at 37°C): 13 mM
